Test results taken from ChEMBL document CHEMBL4196206, “Aturanosides A and B, Glycosylated Anthraquinones with Antiangiogenic Activity from a Soil-Derived Streptomyces Species” (J Nat Prod, 2018).
Activity calls are given as the source filed them. The rule behind the calls is not given here.

Experiments:
HUVEC [1] = assay: Down regulation of VE-cadherin expression in VEGF-stimulated HUVEC at 10 to 50 uM after 6 hrs by Western blot analysis; format: functional, cell-based; details: Homo sapiens
HUVEC [2] = assay: Antiinvasive activity in HUVEC assessed as inhibition of VEGF-induced cell invasion at 25 uM by crystal violet staining based matrigel invasion chamber assay; format: functional; details: Homo sapiens
[3] = target: Vascular endothelial growth factor receptor 2 (Homo sapiens) (UniProt P35968); assay: Inhibition of VEGFR2 phosphorylation in VEGF-stimulated HUVEC at 10 to 50 uM after 6 hrs by Western blot analysis; format: cell-based
HUVEC [4] = assay: Antiangiogenic activity in HUVEC assessed as inhibition of VEGF-induced capillary tube formation by matrigel-based microscopic analysis; format: functional, cell-based; details: Homo sapiens
HUVEC [5] = assay: Cytotoxicity against VEGF-stimulated HUVEC at 100 uM after 24 hrs by EZ-Cytox cell viability assay; format: cell-based; details: human
HUVEC [6] = assay: Antiinvasive activity in HUVEC assessed as inhibition of VEGF-induced cell invasion by crystal violet staining based matrigel invasion chamber assay; format: functional; details: Homo sapiens
HUVEC [7] = assay: Down regulation of VE-cadherin expression in VEGF-stimulated HUVEC after 6 hrs by Western blot analysis; format: functional, cell-based; details: Homo sapiens
[8] = target: Vascular endothelial growth factor receptor 2 (Homo sapiens) (UniProt P35968); assay: Inhibition of VEGFR2 phosphorylation in VEGF-stimulated HUVEC after 6 hrs by Western blot analysis; format: cell-based

Vascular endothelial growth factor receptor 2 (Homo sapiens), sequence (P35968 whole entry): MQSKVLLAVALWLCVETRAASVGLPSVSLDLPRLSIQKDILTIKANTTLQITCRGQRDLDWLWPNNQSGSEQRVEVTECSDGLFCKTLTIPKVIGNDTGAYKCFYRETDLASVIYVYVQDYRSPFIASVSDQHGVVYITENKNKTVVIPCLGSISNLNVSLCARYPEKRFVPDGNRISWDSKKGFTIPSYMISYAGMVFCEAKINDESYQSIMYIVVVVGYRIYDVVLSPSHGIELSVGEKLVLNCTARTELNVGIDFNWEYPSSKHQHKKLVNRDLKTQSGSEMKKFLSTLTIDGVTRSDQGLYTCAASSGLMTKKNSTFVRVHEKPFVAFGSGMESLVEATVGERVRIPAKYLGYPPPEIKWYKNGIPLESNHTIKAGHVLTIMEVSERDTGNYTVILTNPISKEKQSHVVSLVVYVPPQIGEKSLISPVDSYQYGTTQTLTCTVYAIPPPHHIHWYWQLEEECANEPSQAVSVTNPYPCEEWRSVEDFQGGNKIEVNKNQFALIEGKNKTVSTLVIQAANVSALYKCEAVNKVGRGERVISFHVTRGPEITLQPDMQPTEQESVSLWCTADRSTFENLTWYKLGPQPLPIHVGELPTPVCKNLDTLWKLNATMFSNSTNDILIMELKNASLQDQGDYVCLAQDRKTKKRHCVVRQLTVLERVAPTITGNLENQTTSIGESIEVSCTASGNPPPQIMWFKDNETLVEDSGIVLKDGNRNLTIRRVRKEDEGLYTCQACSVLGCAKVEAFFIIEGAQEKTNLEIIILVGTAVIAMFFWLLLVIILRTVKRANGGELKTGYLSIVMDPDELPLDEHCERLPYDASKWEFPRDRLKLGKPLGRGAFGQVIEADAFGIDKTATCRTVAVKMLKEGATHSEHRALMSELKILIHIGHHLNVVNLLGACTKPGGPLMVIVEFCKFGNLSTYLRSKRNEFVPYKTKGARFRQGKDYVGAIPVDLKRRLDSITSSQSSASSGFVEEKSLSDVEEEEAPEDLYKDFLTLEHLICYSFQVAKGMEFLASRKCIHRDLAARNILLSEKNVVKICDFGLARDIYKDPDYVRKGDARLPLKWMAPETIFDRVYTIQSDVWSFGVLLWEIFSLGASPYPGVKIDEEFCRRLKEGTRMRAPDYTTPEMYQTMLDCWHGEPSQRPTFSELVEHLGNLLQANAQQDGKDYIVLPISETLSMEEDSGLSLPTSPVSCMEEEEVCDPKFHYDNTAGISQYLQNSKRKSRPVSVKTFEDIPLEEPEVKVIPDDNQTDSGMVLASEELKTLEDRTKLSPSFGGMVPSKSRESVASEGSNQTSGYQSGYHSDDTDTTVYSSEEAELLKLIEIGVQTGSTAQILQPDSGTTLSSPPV

inhibition [3]	inhibition [8]	SMILES	Activity (HUVEC [1])	inhibition (HUVEC [2])	inhibition (HUVEC [4])	Activity (HUVEC [5])	inhibition (HUVEC [6])	Activity (HUVEC [7])
Active	–	CCCc1cc(O[C@@H]2O[C@@H](C)[C@H](O)[C@@H](O)[C@H]2O)cc2c1C(=O)c1c(O)cc(O)cc1C2=O	Active	Active	Dose-dependent effect	Non-Toxic	–	–
–	inactive	CCCc1c(C(=O)O)c(O)cc2c1C(=O)c1c(O)cc(O)cc1C2=O	–	–	inactive	–	inactive	inactive
Active	–	CCCc1cc(O[C@@H]2O[C@@H](C)[C@H](O)[C@@H](O)[C@H]2OC2O[C@H](CO)[C@@H](O)[C@H](O)[C@H]2NC(C)=O)cc2c1C(=O)c1c(O)cc(O)cc1C2=O (some centres undefined)	Active	Active	Dose-dependent effect	Non-Toxic	–	–
